Patent US11919874B2, “Bisphenol derivatives and their use as androgen receptor activity modulators” (The University of British Columbia, priority 2016, dated 2024)

What was measured:
[1] = molecular target: T1, androgen receptor (Homo sapiens, UniProt P10275, T878A); assay: PSA (6.1 kb)-luciferase reporter assay in LNCaP cells induced with R1881; format: cell-based; settings: R1881 1 nM, 48 h, mean with standard error
T1 construct: endogenous in cells; host or cells: LNCaP
T1 sequence (P10275 1-920 T878A): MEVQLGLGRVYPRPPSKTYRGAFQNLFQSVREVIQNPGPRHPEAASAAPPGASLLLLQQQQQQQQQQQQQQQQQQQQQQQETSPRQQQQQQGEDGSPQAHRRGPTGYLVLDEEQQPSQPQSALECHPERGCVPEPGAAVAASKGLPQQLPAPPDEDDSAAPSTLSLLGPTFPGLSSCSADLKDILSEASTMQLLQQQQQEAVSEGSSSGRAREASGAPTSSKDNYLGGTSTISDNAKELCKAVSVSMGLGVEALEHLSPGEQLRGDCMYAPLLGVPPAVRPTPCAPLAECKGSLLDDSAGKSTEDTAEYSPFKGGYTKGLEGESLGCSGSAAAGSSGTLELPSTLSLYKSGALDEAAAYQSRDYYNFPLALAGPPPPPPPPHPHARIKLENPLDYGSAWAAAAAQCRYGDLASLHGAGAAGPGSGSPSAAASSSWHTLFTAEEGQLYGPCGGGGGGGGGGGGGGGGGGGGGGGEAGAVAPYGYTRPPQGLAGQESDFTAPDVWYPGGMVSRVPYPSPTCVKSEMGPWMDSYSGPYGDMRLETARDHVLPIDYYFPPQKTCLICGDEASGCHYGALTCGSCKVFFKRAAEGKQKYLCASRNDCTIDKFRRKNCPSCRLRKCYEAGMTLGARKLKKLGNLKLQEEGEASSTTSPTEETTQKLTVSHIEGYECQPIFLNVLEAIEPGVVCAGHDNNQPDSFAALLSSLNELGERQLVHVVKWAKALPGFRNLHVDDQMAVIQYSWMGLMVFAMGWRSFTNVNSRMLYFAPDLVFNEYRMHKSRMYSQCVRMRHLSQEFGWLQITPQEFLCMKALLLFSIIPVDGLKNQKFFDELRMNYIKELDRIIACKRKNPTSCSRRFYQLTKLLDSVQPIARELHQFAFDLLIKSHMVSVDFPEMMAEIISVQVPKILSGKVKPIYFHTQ
Procedure: LNCaP cells (3×10^4) were seeded into 24-well plates overnight. […] Luciferase activities were measured and normalized to protein concentration determined by the Bradford assay. IC50 calculations were done using OriginPro 8.1 Software (Northampton, MA, USA). Transfection experiments to determine IC50 values were performed in at least 4 independent experiments (“trials”) using triplicate wells.

[2] = test system: PSA mRNA; assay: PSA mRNA in LNCaP xenografts by QPCR; format: in vivo, mice
Source text: Quantitative Real-Time Polymerase Chain Reaction (QPCR) Method: LNCaP xenografts were homogenized using TRIzol® reagent (Invitrogen™), and total RNA was extracted using PureLink RNA Mini Kit (Life Technologies). Amplification Grade DNase I treatment (Sigma-Aldrich) was applied to the RNA before RT-PCR using High Capacity RNA-to-DNA kit (Life Technologies) to generate cDNA. cDNA and gene-specific primers were combined with Platinum® SYBR® Green qPCRSuperMix-UDG with ROX (Invitrogen™). Transcripts were measured by quantitative real-time PCR (QPCR) using ABI PRISM 7900 Sequence Detection System (ABI PRISM®, Applied Biosystems by Life Technologies) in triplicates for each biological sample. Gene expression levels were normalized to housekeeping gene RPL13A. Primers for PSA have been previously described (Andersen R. J., et al. Cancer Cell. 2010; Myung J. K., et al. J. Clin. Invest. 2013).
In FIG. 6, bars represent mean±SEM with n=5 representative tumors from each treatment group. One-way ANOVA post-hoc Tukey's multiple comparisons test was performed for statistical analysis. *p<0.05; **p<0.01; ***p<0.001.

[3] = test system: LNCaP xenografts; assay: LNCaP xenograft model in castrated NOD-SCID mice, tumor volume; format: in vivo
Procedure: LNCaP Cell Preparation: LNCaP cells were passaged prior to seeding in T175flasks at a concentration of ˜2-3×10^7/mL. The cells were grown for 7 days until 90% confluent. Cell preparations were then prepared in RPMI with 5% FBS/Matrigel (50/50, v/v) yielding a final concentration of 1×10^8/mL.
Tumor Induction and Treatment: Six to eight week old NOD-SCID mice were received from BC Cancer Research Centre's Animal Resource Centre and acclimated for 28 days. Tumors were initiated with […]. Tumors were allowed to grow to an average size of approximately 100 mm^3. Mice were then castrated and the tumors allowed to adapt for a period of one week before first dose was administered. Tumor volume was measured as length×width×height in mm multiplied by 0.5236.
Compound Preparation and Treatment: Compound 1a was dissolved in 100% DMSO (ATCC Lot 61908420) to yield a stock solution of 157 mg/mL. Compound 1a was administered as an oral gavage once per day at dose levels of 10 and 30 mg/kg. Vehicle control animals were administered 1% CMC formulation as an oral gavage once daily. […]
Oral treatment was initiated one week after castration. […] Two days after the last dose, the tumours were measured and harvested. Body weight was assessed daily throughout the treatment period. Tumor volume was measured on day −7 (castration day), and again on days 1, 4, 8, 12, 16, 20, 24 and 26.

[4] = Body weight in LNCaP xenograft model; format: in vivo, mice; settings: daily oral 10 or 30 mg/kg, start vs day 26, vs CMC control
Procedure: Compound Preparation and Treatment: Compound 1a was dissolved in 100% DMSO (ATCC Lot 61908420) to yield a stock solution of 157 mg/mL. Compound 1a was administered as an oral gavage once per day at dose levels of 10 and 30 mg/kg. Vehicle control animals were administered 1% CMC formulation as an oral gavage once daily. CMC (n=17 tumours); 10 mg/kg (n=15 tumours); 30 mg/kg (n=14 tumours). CMC (n=9 animals); 10 mg/kg (n=9 animals); 30 mg/kg (n=9 animals).
Oral treatment was initiated one week after castration. The start of treatment was designated “Day 1” and animals were treated once daily for a total of 24 doses. Two days after the last dose, the tumours were measured and harvested. Body weight was assessed daily throughout the treatment period. Tumor volume was measured on day −7 (castration day), and again on days 1, 4, 8, 12, 16, 20, 24 and 26.

| IC50 [1] [nM] | SMILES | further results |
| --- | --- | --- |
| 1050 ± 150 | CC(C)(c1ccc(OC[C@H](O)CN2CCOCC2)cc1)c1cc(Cl)c(OC[C@H](O)CCl)c(Cl)c1 [Compound 11a, (S)-1-chloro-3-(2,6-dichloro-4-(2-(4-((R)-2-hydroxy-3-morpholinopropoxy)phenyl)propan-2-yl)phenoxy)propan-2-ol] | – |
| 2260 ± 240 | CC(C)(c1ccc(OC[C@H](O)CN)cc1)c1cc(Cl)c(OC[C@H](O)CCl)c(Cl)c1 [Compound 12a, (R)-1-amino-3-(4-(2-(3,5-dichloro-4-((S)-3-chloro-2-hydroxypropoxy)phenyl)propan-2-yl)phenoxy)propan-2-ol] | – |
| 1000 ± 160 | CC(C)(c1ccc(OC[C@H](O)CNS(C)(=O)=O)cc1)c1cc(Cl)c(OC[C@H](O)CCl)c(Cl)c1 [Compound 13a, N-((R)-3-(4-(2-(3,5-dichloro-4-((S)-3-chloro-2-hydroxypropoxy)phenyl)propan-2-yl)phenoxy)-2-hydroxypropyl)methanesulfonamide] | – |
| 950 ± 210 | CCS(=O)(=O)C[C@@H](O)COc1ccc(C(C)(C)c2cc(Cl)c(OC[C@H](O)CCl)c(Cl)c2)cc1 [Compound 14a, (S)-1-chloro-3-(2,6-dichloro-4-(2-(4-((S)-3-(ethylsulfonyl)-2-hydroxypropoxy)phenyl)propan-2-yl)phenoxy)propan-2-ol] | – |

The remaining lines, values behind:

| SMILES | IC50 [1] [nM] | further results |
| --- | --- | --- |
| CC(=O)OC[C@H](COc1ccc(C(C)(C)c2ccc(OC[C@@H](CCl)OC(C)=O)cc2)cc1)OC(C)=O [B, reference compound] | 10700 ± 1040 | – |
| CC(C)(c1ccc(OC[C@H](O)CO)cc1)c1ccc(OC[C@H](O)CCl)c(Cl)c1 [C, reference compound] | 2470 ± 260 | – |
| CC(C)(c1ccc(OC[C@H](O)CO)cc1)c1cc(Cl)c(OC[C@H](O)CCl)c(Cl)c1 [Compound 1a, (R)-3-(4-(2-(3,5-dichloro-4-((S)-3-chloro-2-hydroxypropoxy)phenyl)propan-2-yl)phenoxy)propane-1,2-diol] | 1410 ± 270 | mRNA expression of PSA in tumors ([2]; 30 mg/kg oral daily, compared to the 10 mg/kg dose and control treatment): significant reduction of PSA expression; mRNA expression of PSA in tumors ([2]; 10 and 30 mg/kg oral daily, QPCR normalized to RPL13A, n=5 tumors): dose-dependent inhibition of the mRNA expression of PSA; tumor growth / tumor volume at the end of the treatment period ([3]; daily oral 10 mg/kg or 30 mg/kg, castrated NOD-SCID mice, day 26, vs CMC control): inhibition of tumor growth and significant reduction of tumor volume; difference in tumor volumes between the 10 mg/kg and 30 mg/kg doses ([3]; daily oral, 10 mg/kg vs 30 mg/kg): no statistical difference in the tumor volumes; start and finish body weights [4]: no significant differences between the start and finish body weights |
| COC[C@@H](O)COc1ccc(C(C)(C)c2cc(Cl)c(OC[C@H](O)CCl)c(Cl)c2)cc1 [Compound 5a, (S)-1-chloro-3-(2,6-dichloro-4-(2-(4-((R)-2-hydroxy-3-methoxypropoxy)phenyl)propan-2-yl)phenoxy)propan-2-ol] | 1030 ± 390 | – |
| CC(C)(c1ccc(OC[C@H](O)Cn2ccnc2)cc1)c1cc(Cl)c(OC[C@H](O)CCl)c(Cl)c1 [Compound 9a, (S)-1-chloro-3-(2,6-dichloro-4-(2-(4-((R)-2-hydroxy-3-(1H-imidazol-1-yl)propoxy)phenyl)propan-2-yl)phenoxy)propan-2-ol] | 3120 ± 680 | – |
